Common to all, as to test: stopped-flow CO2 hydrase assay
Experiment [1] deals with T1, hCA II (Homo sapiens, UniProt P00918).
T1 construct: gene CA2; recombinant, obtained in-house
The experiment is classed as biochemical. The text has this:
stopped-flow CO2 hydrase assay on hCA II

Experiment [2] has as its target T2, hCA I (Homo sapiens, UniProt P00915).
T2 construct: gene CA1; recombinant, obtained in-house
The experiment is classed as biochemical. The text has this: stopped-flow CO2 hydrase assay on hCA I

For experiment [3], the target named is T3, MscCAβ (Mammaliicoccus sciuri, UniProt A0AAJ4SIE8).
T3 construct: gene OWO77_14055; recombinant, obtained in-house
T3 sequence (A0AAJ4SIE8 1-189): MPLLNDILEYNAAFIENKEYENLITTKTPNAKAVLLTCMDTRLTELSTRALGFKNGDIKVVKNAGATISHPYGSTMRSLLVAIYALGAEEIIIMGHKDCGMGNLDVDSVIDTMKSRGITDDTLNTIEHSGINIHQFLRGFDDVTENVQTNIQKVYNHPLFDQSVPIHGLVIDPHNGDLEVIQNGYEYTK
It counts as biochemical. To be noted: CO2 hydration, […] TRIS pH […] Na2SO4, […] min preincubation at room temperature.

Experiment [4] has as its target T4, StCA2 (Salmonella enterica, UniProt O30898).
T4 construct: gene mig-5; recombinant, obtained in-house
T4 sequence (O30898 41-246): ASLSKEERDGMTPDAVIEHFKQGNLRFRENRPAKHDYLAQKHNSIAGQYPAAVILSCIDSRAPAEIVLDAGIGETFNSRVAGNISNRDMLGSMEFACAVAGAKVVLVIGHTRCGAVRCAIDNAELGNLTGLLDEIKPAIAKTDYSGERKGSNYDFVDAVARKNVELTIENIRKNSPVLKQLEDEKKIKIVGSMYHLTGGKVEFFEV
The experiment is classed as biochemical. To be noted: CO2 hydration, […] TRIS pH […] Na2SO4, […] min preincubation at room temperature.

Experiment [5] deals with T5, hCA VII (Homo sapiens, UniProt P43166).
T5 construct: gene CA7; recombinant, obtained in-house
The experiment is classed as biochemical. The text has this:
stopped-flow CO2 hydrase assay on hCA VII

Experiment [6] addresses T6, StCA1.
T6 construct: recombinant, obtained in-house
It counts as biochemical, Salmonella enterica subsp. enterica serovar Typhimurium. To be noted: CO2 hydration, […] TRIS pH […] Na2SO4, […] min preincubation at room temperature.

T5 sequence (P43166 whole entry): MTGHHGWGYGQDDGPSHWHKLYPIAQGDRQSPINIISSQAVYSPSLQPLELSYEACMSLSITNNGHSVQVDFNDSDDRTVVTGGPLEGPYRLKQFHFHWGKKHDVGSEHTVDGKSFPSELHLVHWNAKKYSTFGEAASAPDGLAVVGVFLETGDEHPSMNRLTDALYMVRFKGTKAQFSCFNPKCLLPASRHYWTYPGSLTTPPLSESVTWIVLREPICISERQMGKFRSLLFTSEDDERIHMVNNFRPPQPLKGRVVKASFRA
T2 sequence (P00915 2-261): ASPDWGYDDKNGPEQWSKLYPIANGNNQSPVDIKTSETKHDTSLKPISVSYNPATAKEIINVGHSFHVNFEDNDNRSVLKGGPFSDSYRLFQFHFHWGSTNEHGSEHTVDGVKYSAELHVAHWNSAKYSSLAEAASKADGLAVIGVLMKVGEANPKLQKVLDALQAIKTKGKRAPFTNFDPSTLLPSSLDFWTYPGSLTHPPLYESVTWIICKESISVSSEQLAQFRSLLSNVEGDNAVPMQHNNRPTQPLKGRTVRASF

One may read the Ki as a measure of affinity in units of concentration, obtained from inhibition or displacement. Low values mean tighter binding, high ones weaker binding. In the case of `CC1SC(Nc2ccc(S(N)(=O)=O)cc2)=NC1=O` (racemic) [4b, 4-((5-Methyl-4-oxo-4,5-dihydrothiazol-2-yl)amino)benzenesulphonamide], the Ki in experiment [1] was 4.3 nM; in experiment [2], 31.5 nM; in experiment [3], 481 nM; in experiment [4], 538 nM; in experiment [5], 0.9 nM; in experiment [6] it was 89.9 nM.
On to `CCC1SC(Nc2ccc(S(N)(=O)=O)cc2)=NC1=O` (racemic) [4c, 4-((5-Ethyl-4-oxo-4,5-dihydrothiazol-2-yl)amino)benzenesulphonamide], for which the Ki in experiment [1] amounted to 3.8 nM; in experiment [2], 66.6 nM; in experiment [3], 411 nM; in experiment [4] it was 481 nM; in experiment [5], 1.2 nM; in experiment [6], 86.1 nM.
For the compound `CCCC1SC(Nc2ccc(S(N)(=O)=O)cc2)=NC1=O` (racemic) [4d, 4-((4-Oxo-5-propyl-4,5-dihydrothiazol-2-yl)amino)benzenesulphonamide], the Ki worked out at 2.3 nM in experiment [1]; 70.7 nM in experiment [2]; 73.6 nM in experiment [3]; 913 nM in experiment [4]; 2 nM in experiment [5]; 83.3 nM in experiment [6].
In the case of `CC(C)C1SC(Nc2ccc(S(N)(=O)=O)cc2)=NC1=O` (racemic) [4e, 4-((5-Isopropyl-4-oxo-4,5-dihydrothiazol-2-yl)amino)benzenesulphonamide], the Ki in experiment [1] is 7.3 nM; in experiment [2] it was 85.4 nM; in experiment [3] it was 701 nM; in experiment [4], 867 nM; in experiment [5], 7.5 nM; in experiment [6] it was 81.1 nM.
As to `CCCCC1SC(Nc2ccc(S(N)(=O)=O)cc2)=NC1=O` (racemic) [4f, 4-((5-Butyl-4-oxo-4,5-dihydrothiazol-2-yl)amino)benzenesulphonamide], the Ki was found to be 3.2 nM in experiment [1]; 75 nM in experiment [2]; 2420 nM in experiment [3]; 904 nM in experiment [4]; 6.2 nM in experiment [5]; 72.4 nM in experiment [6].
Take `CCCCCCC1SC(Nc2ccc(S(N)(=O)=O)cc2)=NC1=O` (racemic) [4g, 4-((5-Hexyl-4-oxo-4,5-dihydrothiazol-2-yl)amino)benzenesulphonamide]: the Ki was 13.7 nM in experiment [1]; 637 nM in experiment [2]; 4030 nM in experiment [3]; 4880 nM in experiment [4]; 14.6 nM in experiment [5]; 83.6 nM in experiment [6].
Turning to `NS(=O)(=O)c1ccc(NC2=NC(=O)C(c3ccccc3)S2)cc1` (racemic) [4h, 4-((4-Oxo-5-phenyl-4,5-dihydrothiazol-2-yl)amino)benzenesulphonamide], the Ki in experiment [1] worked out at 1.3 nM; in experiment [2] it was 90.4 nM; in experiment [3], 1060 nM; in experiment [4], 797 nM; in experiment [5], 7.3 nM; in experiment [6], 163 nM.
On to `NS(=O)(=O)c1ccc(NC2=NC(=O)C(CCBr)S2)cc1` (racemic) [4i, 4-((5-(2-Bromoethyl)-4-oxo-4,5-dihydrothiazol-2-yl)amino)benzenesulphonamide], for which the Ki in experiment [1] was 2.2 nM; in experiment [2], 74.6 nM; in experiment [3] it was 925 nM; in experiment [4] it was 515 nM; in experiment [5] it was 2.1 nM; in experiment [6], 69.2 nM.
Take `NS(=O)(=O)c1ccc(NC2=NC(=O)C(F)S2)cc1` (racemic) [4j, 4-((5-Fluoro-4-oxo-4,5-dihydrothiazol-2-yl)amino)benzenesulphonamide]: the Ki in experiment [1] is 3.7 nM; in experiment [2] it was 138 nM; in experiment [3] it was 849 nM; in experiment [4], 956 nM; in experiment [5] it was 1.9 nM; in experiment [6], 90.9 nM.
In the case of `NS(=O)(=O)c1ccc(NC2=NC(=O)CS2)cc1` [4a, 4-((4-Oxo-4,5-dihydrothiazol-2-yl)amino)benzenesulphonamide], the Ki came out at 787 nM in experiment [3], 275 nM in experiment [4], 1.4 nM in experiment [5] and 82.4 nM in experiment [6].
